Legend:
FKBP12 = molecular target: T1, FKBP12 (Homo sapiens, UniProt P62942); assay: Immunoblot of FKBP12 levels in RS4;11 cells; format: cell-based; details: for FKBP12 levels: 390 nm pulse irradiation (100 ms every 10 s); for FKBP12 degradation: in the dark; for hook effect in FKBP12 degradation: 4 h, different concentrations; for FKBP12 degradation with MLN4924: in the presence of MLN4924; for light activation among compounds targeting FKBP12: light vs dark
T1 construct: endogenous in cells; host or cells: RS4;11 (ATCC CRL-1873)
Method: FIG. 6 depicts optical control of FKBP12 degradation. A) Immunoblot analysis of FKBP12 after treatment of RS4;11 cells with PHOTAC-II-5 for 4 h at different concentrations. Cells were either irradiated with pulses of 390 nm light (left, 100 ms every 10 s) or kept in the dark (right). B) Time course of FKBP12 degradation visualized by immunoblotting. RS4;11 cells were treated with PHOTAC-II-5 (100 nM) and collected at the indicated time points. C) Immunoblot analysis of FKBP12 after treatment of RS4;11 cells with PHOTAC-II-6 for 4 h at different concentrations. Cells were either irradiated with pulses of 390 nm light (left, 100 ms every 10 s) or kept in the dark (right). D) Time course of FKBP12 degradation visualized by immunoblotting. RS4;11 cells were treated with PHOTAC-II-6 (100 nM) and collected at the indicated time points.
FIG. 15 depicts FKBP12 immunoblots in RS4;11 cells. […] B) Degradation of FKBP12. Immunoblot analysis of FKBP12 after treatment of RS4;11 cells with PHOTAC-II-1 for 4 h at different concentrations. Cells were either irradiated with 100 ms pulses of 390 nm light every 10 s (left) or kept the dark (right). C) Time course of FKBP12 degradation visualized by immunoblotting.
Amongst the molecules tested, PHOTAC-II-5 and PHOTAC-II-6 turned out to be the most useful, and the biological investigations have been focused on these molecules (for PHOTACs-II-1-4, see FIG. 16). […] The degradation was slower than in the case of BET proteins, but between 6 and 12 hours the protein was largely absent from the cell lysates (FIG. 6B). […] The time course of FKBP12 degradation by PHOTAC-II-6 was similar to the one observed with PHOTAC-II-5 (FIG. 6D).
(§1) Cells were incubated with different concentrations of selected compounds. They were placed in a light-proof box and preirradiated for 1 min at 390 nm followed by 100 ms pulses every 10 s or were kept in the dark for 4 h.
(§2) Cultured cells were collected by centrifugation and washed twice with cold PBS. The supernatant was removed and each cell pellet was lysed in 100 μL NP40-Cell-Lysis Buffer+0.1% SDS+1 mM PMSF+ protease inhibitor cocktail (Sigma Aldrich) for 30 min on ice, with vortexing at 10-minute intervals. Afterwards, cells were centrifuged at 13.000 rpm for 10 min at 4° C. Samples were stored on ice and the supernatant was collected for protein concentration determination using a Thermofisher Scientific Pierce™ Coomassie Plus (Bradford) Assay Kit.
(§3) The samples were diluted each with 5 μL Laemmli sample buffer Invitrogen (NuPAGE LDS Sample Buffer 4×) and 1 μL DTT, heated at 95° C. for 5 min. Respectively 20 μL of each sample was loaded in a lane of a Bio-Rad Mini-PROTEAN TGX precast Gel, 4-20%, used with tris-glycine SDS Running buffer. The gel ran 5 min at 50 V, then 35 min at 140 V. Next step was the electrotransfer to a polyvinylidene difluoride (PVDF) membrane which was carried out using an iBlot™ 2 Dry Blotting System set to the standard program. After the transfer, the membrane was washed with 25 mL TB ST for 5 min and subsequent incubated in 25 mL of blocking buffer (1×TBST+5% nonfat dry milk, Blotto, Santa Cruz Biotechnology) for 1 h at room temperature. The membrane was washed three times for 5 min each with 15 mL of TBST and incubated in a 10 mL antibody dilution buffer with gentle agitation at 4° C. overnight (Actin: 1:1000; c-MYC: 1:1000; BRD4: 1:1000). The next day, the membrane was washed again three times for 5 min each with 15 mL TBST, followed by incubation with anti-rabbit, HRP-linked antibody (1:2000) in 10 mL blocking buffer with gentle agitation for 1 h at room temperature. Afterwards, the membrane was washed three times for 5 min each with 15 mL TBST and then incubated in 10 mL of Clarity Max Western ECL Substrate solution for 5 min. Chemoluminescence imaging was performed on a Bio-Rad ChemiDoc™ Imaging System.
LED illumination. For illumination of the cells we used the cell disco system as previously described in the literature^[25]. […]

BRD4 = BRD4 (Homo sapiens, UniProt O60885); assay: Western blot of BRD4 levels in RS4;11 cells; format: cell-based; design: endogenous in cells; host or cells: RS4;11 (ATCC CRL-1873); details: 4 h
Method: Next, the light dependence of targeted protein degradation was analyzed in RS4;11 cells by western blot analysis of the BET proteins BRD2-4 (FIG. 5). To this end, cells were treated with increasing concentrations of our lead compound, PHOTAC-I-3, for 4 h and pulse-irradiated with 390 nm light (100 ms every 10 s). […] The cereblon-dependent degradation was confirmed by a competition experiment (FIG. 5E), and further validated by siRNA knockdown of cereblon (FIG. 13).
Western Immunoblot Analysis. Rabbit monoclonal Antibodies for BRD4 (#13440), β-Actin (#4970) c-Myc (#5605) and Anti-rabbit IgG, HRP-linked Antibody (#7074) were purchased from Cell Signalling Technologies.
as §1, §2, §3
(§4) LED illumination. For illumination of the cells we used the cell disco system as previously described in the literature^[25]. 390 nm 5 mm LEDs were purchased from Roithner Lasertechnik. Cells were preirradiated for 1 min at 390 nm, followed by 100 ms pulses every 10 s in 96- or 6-well plates.

RS4;11 lymphoblast cells = assay: Cell viability assay (Promega MTS), dark or pulsed irradiation; format: cell-based, human; details: 72 h, dark vs pulsed 390 nm irradiation
Method: Optical control of BRD2-4 with PHOTACs. To assess the biological activity of the PHOTACs, their effect on the viability of RS4;11 lymphoblast cells was tested. Cells were treated in a 96-well plate with increasing concentrations of PHOTACs and were either irradiated with 390 nm light pulses (100 ms every 10 s) for 72 h or incubated with the compound in the dark. Subsequently, cell viability assays (Promega MTS) were performed, as previously described.
Cell culture. The human acute lymphoblastic leukemia RS4;11 (ATCC® CRL-1873™) cell line was purchased from the American Type Culture Collection and cultured in RPMI1640 medium (Gibco) with 10% fetal bovine serum (FBS) and 1% penicillin/streptomycin (PS) in a humidified incubator at 37° C. with 5% CO2 in air. Cells were divided every 2-3 days and the concentration was maintained between 1×10^5 and 1×10^6 cells/mL. For the experiments compounds were serially diluted in RPMI160 without the dye phenol red (Gibco) to reduce the influence of the dye by absorption. Azobenzene stocks and dilutions were strictly kept in the dark and prepared under red light conditions.
Colorimetric MTT Assays. The activity of dehydrogenase enzymes in metabolically active cells, as a quantitative measurement for cytotoxicity and proliferation, was determined by colorimetric measurement of the reduction of [3-(4,5-dimethylthiazol-2-yl)-5-(3-carboxymethoxyphenyl)-2-(4-sulfophenyl)-2H-tetrazolium (MTS) to formazan. The absorbance of formazan at 490 nm was measured on a FLUOstar Omega microplate reader (BMG Labtech).
Cells were treated with different concentrations, ranging from 10 μM to 1 nM, of our compounds and incubated on a 96-well plate for 72 h. They were placed in light-proof boxes and exposed to the lighting conditions specified in the experiment for 72 h. Next, 10 μL of Promega CellTiter 96® AQueous One Solution Reagent was added to each well and incubated for further 4-7 hours. The absorbance at 490 nm was then recorded with a 96-well plate reader.
as §4

T1 sequence (P62942 whole entry): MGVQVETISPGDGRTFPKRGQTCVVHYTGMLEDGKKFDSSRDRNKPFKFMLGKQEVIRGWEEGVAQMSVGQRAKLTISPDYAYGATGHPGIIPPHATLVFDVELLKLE

| Structure (SMILES) | FKBP12 levels (FKBP12) | FKBP12 degradation (FKBP12) | hook effect in FKBP12 degradation (FKBP12) | FKBP12 degradation with MLN4924 (FKBP12) | light activation among compounds targeting FKBP12 (FKBP12) | BRD4 levels (BRD4; 390 nm pulses (100 ms every 10 s)) | concentration at which robust photodegradation of BRD4 was found (BRD4; 390 nm pulses) | hook effect in BRD4 degradation (BRD4; different concentrations, 390 nm) | light dependence of activity in viability assay (RS4;11 lymphoblast cells) |
| --- | --- | --- | --- | --- | --- | --- | --- | --- | --- |
| CCC(C)(C)C(=O)C(=O)N1CCCC[C@H]1C(=O)O[C@H](CCc1ccc(OC)c(OC)c1)c1cccc(OCC(=O)NCCCNC(=O)COc2c(OC)cc(/N=N\c3cccc4c3CN(C3CCC(=O)NC3=O)C4=O)cc2OC)c1 (stereo partly drawn) [PHOTAC-II-1, (1R)-3-(3,4-dimethoxyphenyl)-1-(3-(2-((3-(2-(4-((2-(2,6-dioxopiperidin-3-yl)-1-oxoisoindolin-4-yl)diazenyl)-2,6-dimethoxyphenoxy)acetamido)propyl)-amino)-2-oxoethoxy)phenyl)propyl-(2S)-1-(3,3-dimethyl-2-oxopentanoyl)-piperidine-2-carboxylate] | slow, but sustained FKBP12 degradation over time | not when kept in the dark |  |  |  |  |  |  |  |
| CCC(C)(C)C(=O)C(=O)N1CCCC[C@H]1C(=O)O[C@H](CCc1ccc(OC)c(OC)c1)c1cccc(OCC(=O)NCCNC(=O)COc2ccc(/N=N\c3cccc4c3CN(C3CCC(=O)NC3=O)C4=O)cc2)c1 (stereo partly drawn) [PHOTAC-II-5, (1R)-3-(3,4-dimethoxyphenyl)-1-(3-(2-((2-(2-(4-((Z)-(2-(2,6-dioxopiperidin-3-yl)-1-oxoisoindolin-4-yl)diazenyl)phenoxy)acetamido)ethyl)amino)-2-oxoethoxy)phenyl)propyl (25)-1-(3,3-dimethyl-2-oxopentanoyl)piperidine-2-carboxylate] | pronounced effect on FKBP12 levels | no degradation could be observed in the dark | pronounced “hook effect” | inactive | largest light activation |  |  |  |  |
| COc1cc(/N=N/c2cccc3c2CN(C2CCC(=O)N(C)C2=O)C3=O)cc(OC)c1OCC(=O)NCCCCNC(=O)C[C@@H]1N=C(c2ccc(Cl)cc2)c2c(sc(C)c2C)-n2c(C)nnc21 (stereo partly drawn) [Me-PHOTAC-I-3, 2-((S)-4-(4-chlorophenyl)-2,3,9-trimethyl-6H-thieno[3,2-f][1,2,4]triazolo[4,3-a][1,4]diazepin-6-yl)-N-(4-(2-(2,6-dimethoxy-4-((E)-(2-(1-methyl-2,6-dioxopiperidin-3-yl)-1-oxoisoindolin-4-yl)diazenyl)phenoxy)acetamido)butyl)acetamide] |  |  |  |  |  | inactive control |  |  |  |
| Cc1sc2c(c1C)C(c1ccc(Cl)cc1)=N[C@@H](CC(=O)Nc1ccc(/N=N/c3ccc(NC(=O)COc4cccc5c4C(=O)N(C4CCC(=O)NC4=O)C5=O)cc3)cc1)c1nnc(C)n1-2 (stereo partly drawn) [PHOTAC-I-10, 2-((S)-4-(4-chlorophenyl)-2,3,9-trimethyl-6H-thieno[3,2-f][1,2,4]triazolo[4,3-a][1,4]diazepin-6-yl)-N-(4-((E)-(4-(2-((2-(2,6-dioxopiperidin-3-yl)-1,3-dioxoisoindolin-4-yl)oxy)acetamido)phenyl)diazenyl)phenyl)acetamide] |  |  |  |  |  |  | ≤ 10 nM | clear hook-effect | light-dependent behavior |
| CCC(C)(C)C(=O)C(=O)N1CCCC[C@H]1C(=O)O[C@H](CCc1ccc(OC)c(OC)c1)c1cccc(OCC(=O)Nc2ccc(/N=N/c3ccc(NC(=O)COc4cccc5c4C(=O)N(C4CCC(=O)NC4=O)C5=O)cc3)cc2)c1 (stereo partly drawn) [PHOTAC-II-6, (1R)-3-(3,4-dimethoxyphenyl)-1-(3-(2-((4-((E)-(4-(2-((2-(2,6-dioxopiperidin-3-yl)-1,3-dioxoisoindolin-4-yl)oxy)acetamido)phenyl)diazenyl)phenyl)amino)-2-oxoethoxy)phenyl)propyl (2S)-1-(3,3-dimethyl-2-oxopentanoyl)piperidine-2-carboxylate] | light-dependent degradation | slight dark activity | pronounced “hook effect” | inactive | largest light activation |  |  |  |  |

Reference: US20220143183A1, “PHOTOSWITCHABLE PROTACS AND SYNTHESIS AND USES THEREOF” (New York University, priority 2019, published 2022)
